Read-outs that look alike come from different tables or passages of the source.
What was measured:
[1] = test system: P. falciparum CQ-sensitive (3D7) strain; design: method as in PMID 24900630; conditions: read-out: in vitro antiplasmodial activity IC50; cited from earlier work
[2] = test system: P. falciparum CQ-resistant (K1) strain; design: method as in PMID 24900630; conditions: read-out: in vitro antiplasmodial activity IC50; cited from earlier work
[3] = test system: P. falciparum CQ-resistant (W2) strain; design: method as in PMID 24900630; conditions: read-out: in vitro antiplasmodial activity IC50; cited from earlier work
[4] = pharmacokinetic evaluation in mice (oral and IV), blood levels by LC-MS/MS; assay type: in vivo, C57/BL6 mice; conditions: for Blood CL total / Vd / Vss / AUC 0 - ∞ / Apparent t 1/2 / T max / Bioavailability / Cmax: male C57/BL6 mice; for AUC 0 - ∞ / Apparent t 1/2 / Cmax: blood; for Apparent t 1/2: mean of 5; for half-life: male, C57/BL6, mouse, whole blood, mice, read-out: apparent half-life, range
Experimental: Snapshot pharmacokinetic evaluations were performed on a number of analogues from the TK-series anti-malarial compounds. […] The test compound dissolved in a 20 mM Sodium acetate buffer (pH 4.0): Ethanol: PEG400 (70:5:25; v/v/) drug vehicle was administered orally to healthy C57/BL6 mice (n = 5) at doses of 40 and 20 mg/kg, and intravenously at doses of 5 and 2.5 mg/kg. Blood samples were collected at predetermined sampling times (except for the first sampling time, i.e. 5 minutes after dosing for the IV group and 10 minutes for the oral group, the sampling times were 0.5,1, 3, 5, 7, 12 and 24 h after dosing) by bleeding the tip of the tail, and analysed using a validated LC-MS/MS assay. Back-calculated concentrations of the blood samples were obtained from a standard regression curve with nine concentration levels (3.910 to 1000 ng/ml). Concentration vs. time profiles were constructed and the data analysed with Summit PK software to obtain the pharmacokinetic parameters.

[5] = stock solution stability in methanol; assay type: physicochemical; conditions: for stock solution stability in methanol, % Reference (peak area vs fresh): 100.0 μg/ml in methanol, eight days, n = 6; for stability in methanol (in words): at room temperature, 5°C, and -20°C
Experimental: The stability of TK900D and TK900E in methanol was evaluated at room temperature, ~ 5°C and ~ -20°C. Stock solutions with concentrations of 100.0 μg/ml of TK900D and the internal standard were prepared in methanol. Three aliquots of each of the stock solutions were kept at room temperature, ~ 5 °C, and ~ –20°C, respectively, for eight days. After diluting the stored stock solutions in injection solvent to a 100.0 ng/ml, the stability of TK900D and that of the internal standard were assessed by comparing the peak areas obtained from the stored stock solutions with peak areas of the freshly prepared stock solutions. For stock solution results to be acceptable the percentage reference value should not exceed 15%.

[6] = long-term stability in human whole blood; assay type: in vitro ADME; conditions: for Long term stability, % Bias from nominal: human whole blood, ~ -80°C, 181 days, n = 6
Experimental: For the determination of long-term stability in human whole blood, TK900D spiked quality control samples at 800.0 ng/ml and 10.01 ng/ml were stored at ~ -80°C for 181 days (long enough to cover the time period elapsed from the first day of sample collection to the final sample analysis). These samples were thawed on the day of testing and run together with freshly prepared calibration standards and quality controls and the values were calculated from the resulting calibration curve obtained from the calibration standards.

[7] = freeze and thaw stability in blood; assay type: in vitro ADME, human; conditions: for Freeze and thaw stability, % Bias from nominal: blood, three freeze-thaw cycles from ~ -80°C, n = 6
Experimental: Quality control blood samples at high and low concentration, 800.0 and 10.01 ng/ml respectively, of TK900D stored frozen at ~ -80°C were allowed to thaw completely unassisted at room temperature and then refrozen for 12 to 24 hours. After three such freeze-thaw cycles the samples were assayed in the third validation run and the measured concentrations were compared with the nominal concentrations of these samples.

[8] = short-term (on-bench) stability in blood; assay type: in vitro ADME, human; conditions: for On bench stability, % Bias from nominal: blood, room temperature on bench, n = 6
Experimental: […] The samples were assayed in one of the validation batches. The measured concentrations were compared with the nominal concentrations of these samples.

[9] = on-instrument stability (OIS) of extracted samples; assay type: physicochemical; conditions: for OIS (on-instrument stability), % Bias: extracted samples on instrument, n = 6; for on-instrument stability (in words): ~ 8.2 h on-instrument
Experimental: In order to assess the stability of the analytes while awaiting injection on instrument, on-instrument stability (OIS) was assessed for the period of time that the extracted samples were expected to stay on-instrument during the batch run-time (~ 9 h). Quality control samples at high and low concentrations (800.0 ng/ml and 10.01 ng/ml, respectively), were extracted in replicates of six and injected at the beginning and end of the run (i.e. six QC-high and six QC-low at the beginning of the run and another set of six QC-high and QC-low at the end of the run bracketed with quality control samples). The mean measured concentration of the OIS-samples (injected at the end of the run) and OIS-reference samples (injected at the beginning of the run) were compared: in order to be acceptable, their percentage difference should be within ± 15%.

CHO mammalian cell line = test system: CHO mammalian cell line; design: method as in PMID 24900630; conditions: MTT assay, read-out: cytotoxicity IC50; cited from earlier work
[10] = other: oral and intravenous, over all oral and IV dose groups
[11] = as summarised in abstract (matches oral 40 and 20 mg/kg groups)

SMILES: CCN(CC)CCCC(C)Nc1ccnc2cc(Cl)ccc12 (stereo not drawn) [CQ, Chloroquine, reference compound]
- IC50 [1]: 0.2 nM
- IC50 [2]: 36 nM
- IC50 [3]: 59.1 nM

SMILES: CC(C)(C)n1nnnc1C(NCCNc1ccnc2cc(Cl)ccc12)c1ccc(Cl)c(Cl)c1 (stereo not drawn) [TK900D]
- Blood CL total ([4]; IV 2.5 mg/kg): 48.9 mL/min/kg
- Vd ([4]; IV 2.5 mg/kg): 7.9 L/kg
- Vss ([4]; IV 2.5 mg/kg): 8.7 L/kg
- AUC 0 - ∞ ([4]; IV 2.5 mg/kg): 104 µmol·min/L
- Apparent t 1/2 ([4]; IV 2.5 mg/kg): 1.9 h
- Blood CL total ([4]; IV 5.0 mg/kg): 44.8 mL/min/kg
- Vd ([4]; IV 5.0 mg/kg): 8.9 L/kg
- Vss ([4]; IV 5.0 mg/kg): 9.1 L/kg
- AUC 0 - ∞ ([4]; IV 5.0 mg/kg): 222 µmol·min/L
- Apparent t 1/2 ([4]; IV 5.0 mg/kg): 2.3 h
- T max ([4]; oral 20 mg/kg): 1.4 h
- Bioavailability ([4]; oral 20 mg/kg vs IV 2.5 mg/kg): 30.8%
- AUC 0 - ∞ ([4]; oral 20 mg/kg): 256 µmol·min/L
- Cmax ([4]; oral 20 mg/kg): 540 nM
- Apparent t 1/2 ([4]; oral 20 mg/kg): 6.0 h
- T max ([4]; oral 40 mg/kg): 1.4 h
- Bioavailability ([4]; oral 40 mg/kg vs IV 5 mg/kg): 16.2%
- AUC 0 - ∞ ([4]; oral 40 mg/kg): 287 µmol·min/L
- Cmax ([4]; oral 40 mg/kg): 790 nM
- Apparent t 1/2 ([4]; oral 40 mg/kg): 3.9 h
- half-life [4, 10]: 2 to 6 h
- half-life [4, 11]: 4 to 6 h
- stock solution stability in methanol, % Reference (peak area vs fresh) ([5]; room temperature): 106.9%
- stock solution stability in methanol, % Reference (peak area vs fresh) ([5]; ~ 5°C): 105.2%
- stock solution stability in methanol, % Reference (peak area vs fresh) ([5]; ~ -20°C): 100.3%
- stability in methanol (in words) [5]: stable
- stability in human whole blood (in words) ([6]; 181 days stored at -80°C): stable
- Long term stability, % Bias from nominal ([6]; High (800.0 ng/ml)): 0.7%
- Long term stability, % Bias from nominal ([6]; Low (10.01 ng/ml)): -4.0%
- freeze-thaw stability (in words) ([7]; at least three freeze-thaw cycles): stable
- Freeze and thaw stability, % Bias from nominal ([7]; High (800.0 ng/ml)): 6.6%
- Freeze and thaw stability, % Bias from nominal ([7]; Low (10.01 ng/ml)): 8.6%
- On bench stability, % Bias from nominal ([8]; High (800.0 ng/ml)): 8.3%
- On bench stability, % Bias from nominal ([8]; Low (10.01 ng/ml)): 5.2%
- on-bench stability (in words) ([8]; ~ 12 h on-bench at room temperature): stable
- OIS (on-instrument stability), % Bias ([9]; High (800.0 ng/ml)): 0.9%
- OIS (on-instrument stability), % Bias ([9]; Low (10.01 ng/ml)): 4.5%
- on-instrument stability (in words) [9]: stable
- IC50 [1]: 0.4 nM
- IC50 [2]: 8.2 nM
- IC50 [3]: 30.5 nM
- IC50 (CHO mammalian cell line): 10500 nM

SMILES: CC(C)(C)n1nnnc1C(NCCNc1ccnc2cc(Cl)ccc12)c1ccc(Cl)cc1 (stereo not drawn) [TK900E]
- Blood CL total ([4]; IV 2.5 mg/kg): 51.2 mL/min/kg
- Vd ([4]; IV 2.5 mg/kg): 7.0 L/kg
- Vss ([4]; IV 2.5 mg/kg): 6.5 L/kg
- AUC 0 - ∞ ([4]; IV 2.5 mg/kg): 107 µmol·min/L
- Apparent t 1/2 ([4]; IV 2.5 mg/kg): 1.6 h
- Blood CL total ([4]; IV 5.0 mg/kg): 51.0 mL/min/kg
- Vd ([4]; IV 5.0 mg/kg): 10.3 L/kg
- Vss ([4]; IV 5.0 mg/kg): 12.6 L/kg
- AUC 0 - ∞ ([4]; IV 5.0 mg/kg): 221 µmol·min/L
- Apparent t 1/2 ([4]; IV 5.0 mg/kg): 2.5 h
- T max ([4]; oral 20 mg/kg): 0.8 h
- Bioavailability ([4]; oral 20 mg/kg vs IV 2.5 mg/kg): 25.9%
- AUC 0 - ∞ ([4]; oral 20 mg/kg): 222 µmol·min/L
- Cmax ([4]; oral 20 mg/kg): 940 nM
- Apparent t 1/2 ([4]; oral 20 mg/kg): 3.6 h
- T max ([4]; oral 40 mg/kg): 1.0 h
- Bioavailability ([4]; oral 40 mg/kg vs IV 5 mg/kg): 30.6%
- AUC 0 - ∞ ([4]; oral 40 mg/kg): 541 µmol·min/L
- Cmax ([4]; oral 40 mg/kg): 2810 nM
- Apparent t 1/2 ([4]; oral 40 mg/kg): 4.0 h
- half-life [4, 10]: 1.6 to 4 h
- half-life [4, 11]: 3.6 to 4 h
- stock solution stability in methanol, % Reference (peak area vs fresh) ([5]; room temperature): 102.8%
- stock solution stability in methanol, % Reference (peak area vs fresh) ([5]; ~ 5°C): 103.5%
- stock solution stability in methanol, % Reference (peak area vs fresh) ([5]; ~ -20°C): 98.2%
- stability in methanol (in words) [5]: stable
- on-instrument stability (in words) [9]: stable
- IC50 [1]: 2 nM
- IC50 [2]: 1 nM
- IC50 [3]: 25.5 nM

— paper PMC3916804, “The development and validation of an LC-MS/MS method for the determination of a new anti-malarial compound (TK900D) in human whole blood and its application to pharmacokinetic studies in mice” (Malaria Journal, 2014)
